Marks after values point to notes of the source that are not given here.
Assay: adverse events in patients (CTCAE version 3.0)
Type: in vivo, human
Details: for Any motesanib-related AE, Grade 5 / Motesanib-related AE: Anorexia / Motesanib-related AE: Constipation / Motesanib-related AE: Deep vein thrombosis / Motesanib-related AE: Dehydration / Motesanib-related AE: Dermatitis acneiform / Motesanib-related AE: Diarrhea / Motesanib-related AE: Erythema / Motesanib-related AE: Fatigue / Motesanib-related AE: Hypertension / Motesanib-related AE: Nausea / Motesanib-related AE: Pulmonary embolism / Motesanib-related AE: Rash / Motesanib-related AE: Vomiting / Motesanib-related Arterial thromboembolic events (all grades) / Motesanib-related Arterial thrombosis, Grade 3 / Motesanib-related Arterial thrombosis, Grade 4 / Motesanib-related Cerebrovascular accident, Grade 2 / Motesanib-related Deep vein thrombosis, Grade 2 / Motesanib-related Deep vein thrombosis, Grade 3 / Motesanib-related Gallbladder disorder, Grade 1 / Motesanib-related Hemorrhagic events, Grade 1 / Motesanib-related Jugular vein thrombosis, Grade 2 / Motesanib-related Neutropenia, Grade 3 / Motesanib-related Pulmonary embolism, Grade 4 / Motesanib-related Pulmonary embolism, Grade 5 / Motesanib-related Venous thromboembolic events (all grades) / Patients with any motesanib-related AE / Any motesanib-related AE, Grade 3 / Any motesanib-related AE, Grade 4: gemcitabine/cisplatin
Procedure: Adverse events were recorded throughout the study and graded (including DLTs) according to the Common Terminology Criteria for Adverse Events, version 3.0. Samples for assessment of hematology, blood chemistry, urinalysis, and thyroid function were collected on day 1 of each cycle.

[1] = motesanib 75 mg QD (n = 6) + panitumumab
[2] = motesanib 100 mg QD (n = 6) + panitumumab
[3] = motesanib 125 mg QD (n = 11) + panitumumab

CC1(C)CNc2cc(NC(=O)c3cccnc3NCc3ccncc3)ccc21 [motesanib]
Any motesanib-related AE, Grade 5 [1]: 0 (0) n (%)
Motesanib-related AE: Anorexia [1]: 0 (0) n (%)
Motesanib-related AE: Constipation [1]: 2 (33) n (%)
Motesanib-related AE: Deep vein thrombosis [1]: 0 (0) n (%)
Motesanib-related AE: Dehydration [1]: 1 (17) n (%)
Motesanib-related AE: Dermatitis acneiform [1]: 2 (33) n (%)
Motesanib-related AE: Diarrhea [1]: 1 (17) n (%)
Motesanib-related AE: Erythema [1]: 2 (33) n (%)
Motesanib-related AE: Fatigue [1]: 2 (33) n (%)
Motesanib-related AE: Hypertension [1]: 4 (67) n (%)
Motesanib-related AE: Nausea [1]: 5 (83) n (%)
Motesanib-related AE: Pulmonary embolism [1]: 2 (33) n (%)
Motesanib-related AE: Rash [1]: 1 (17) n (%)
Motesanib-related AE: Vomiting [1]: 3 (50) n (%)
Motesanib-related Arterial thromboembolic events (all grades) [1]: 0 (0) n (%)
Motesanib-related Arterial thrombosis, Grade 3 [1]: 0 (0) n (%)
Motesanib-related Arterial thrombosis, Grade 4 [1]: 0 (0) n (%)
Motesanib-related Cerebrovascular accident, Grade 2 [1]: 0 (0) n (%)
Motesanib-related Deep vein thrombosis, Grade 2 [1]: 0 (0) n (%)
Motesanib-related Deep vein thrombosis, Grade 3 [1]: 0 (0) n (%)
Motesanib-related Gallbladder disorder, Grade 1 [1]: 1 (17) n (%)
Motesanib-related Hemorrhagic events, Grade 1 [1]: 0 (0) n (%)
Motesanib-related Jugular vein thrombosis, Grade 2 [1]: 1 (17) n (%)
Motesanib-related Neutropenia, Grade 3 [1]: 0 (0) n (%)
Motesanib-related Pulmonary embolism, Grade 4 [1]: 2 (33) n (%)
Motesanib-related Pulmonary embolism, Grade 5 [1]: 0 (0) n (%)
Motesanib-related Venous thromboembolic events (all grades) [1]: 3 (50) n (%)
Patients with any motesanib-related AE [1]: 6 (100) n (%)
Any motesanib-related AE, Grade 3 [2]: 1 (17) n (%)
Any motesanib-related AE, Grade 4 [2]: 2 (33) n (%)
Any motesanib-related AE, Grade 5 [2]: 0 (0) n (%)
Motesanib-related AE: Anorexia [2]: 2 (33) n (%)
Motesanib-related AE: Constipation [2]: 0 (0) n (%)
Motesanib-related AE: Deep vein thrombosis [2]: 1 (17) n (%)
Motesanib-related AE: Dehydration [2]: 0 (0) n (%)
Motesanib-related AE: Dermatitis acneiform [2]: 0 (0) n (%)
Motesanib-related AE: Diarrhea [2]: 0 (0) n (%)
Motesanib-related AE: Erythema [2]: 1 (17) n (%)
Motesanib-related AE: Fatigue [2]: 2 (33) n (%)
Motesanib-related AE: Hypertension [2]: 2 (33) n (%)
Motesanib-related AE: Nausea [2]: 2 (33) n (%)
Motesanib-related AE: Pulmonary embolism [2]: 2 (33) n (%)
Motesanib-related AE: Rash [2]: 0 (0) n (%)
Motesanib-related AE: Vomiting [2]: 1 (17) n (%)
Motesanib-related Arterial thromboembolic events (all grades) [2]: 0 (0) n (%)
Motesanib-related Arterial thrombosis, Grade 3 [2]: 0 (0) n (%)
Motesanib-related Arterial thrombosis, Grade 4 [2]: 0 (0) n (%)
Motesanib-related Cerebrovascular accident, Grade 2 [2]: 0 (0) n (%)
Motesanib-related Deep vein thrombosis, Grade 2 [2]: 0 (0) n (%)
Motesanib-related Deep vein thrombosis, Grade 3 [2]: 1 (17)^b n (%)
Motesanib-related Gallbladder disorder, Grade 1 [2]: 0 (0) n (%)
Motesanib-related Hemorrhagic events, Grade 1 [2]: 1 (17) n (%)
Motesanib-related Jugular vein thrombosis, Grade 2 [2]: 0 (0) n (%)
Motesanib-related Neutropenia, Grade 3 [2]: 0 (0) n (%)
Motesanib-related Pulmonary embolism, Grade 4 [2]: 2 (33)^b n (%)
Motesanib-related Pulmonary embolism, Grade 5 [2]: 0 (0) n (%)
Motesanib-related Venous thromboembolic events (all grades) [2]: 2 (33) n (%)
Patients with any motesanib-related AE [2]: 4 (67) n (%)
Any motesanib-related AE, Grade 3 [3]: 6 (55) n (%)
Any motesanib-related AE, Grade 4 [3]: 3 (27) n (%)
Motesanib-related AE: Anorexia [3]: 4 (36) n (%)
Motesanib-related AE: Constipation [3]: 2 (18) n (%)
Motesanib-related AE: Deep vein thrombosis [3]: 2 (18) n (%)
Motesanib-related AE: Dehydration [3]: 3 (27) n (%)
Motesanib-related AE: Dermatitis acneiform [3]: 2 (18) n (%)
Motesanib-related AE: Diarrhea [3]: 7 (64) n (%)
Motesanib-related AE: Erythema [3]: 0 (0) n (%)
Motesanib-related AE: Fatigue [3]: 6 (55) n (%)
Motesanib-related AE: Hypertension [3]: 5 (45) n (%)
Motesanib-related AE: Nausea [3]: 4 (36) n (%)
Motesanib-related AE: Pulmonary embolism [3]: 3 (27) n (%)
Motesanib-related AE: Rash [3]: 2 (18) n (%)
Motesanib-related AE: Vomiting [3]: 2 (18) n (%)
Motesanib-related Arterial thromboembolic events (all grades) [3]: 1 (9) n (%)
Motesanib-related Arterial thrombosis, Grade 3 [3]: 1 (9) n (%)
Motesanib-related Arterial thrombosis, Grade 4 [3]: 0 (0) n (%)
Motesanib-related Cerebrovascular accident, Grade 2 [3]: 0 (0) n (%)
Motesanib-related Deep vein thrombosis, Grade 2 [3]: 0 (0) n (%)
Motesanib-related Deep vein thrombosis, Grade 3 [3]: 2 (18)^c n (%)
Motesanib-related Gallbladder disorder, Grade 1 [3]: 0 (0) n (%)
Motesanib-related Hemorrhagic events, Grade 1 [3]: 3 (27) n (%)
Motesanib-related Jugular vein thrombosis, Grade 2 [3]: 0 (0) n (%)
Motesanib-related Neutropenia, Grade 3 [3]: 0 (0) n (%)
Motesanib-related Pulmonary embolism, Grade 4 [3]: 3 (27)^c n (%)
Motesanib-related Pulmonary embolism, Grade 5 [3]: 0 (0) n (%)
Motesanib-related Venous thromboembolic events (all grades) [3]: 3 (27) n (%)
Patients with any motesanib-related AE [3]: 11 (100) n (%)
Any motesanib-related AE, Grade 5 (motesanib 125 mg QD (n = 11) + panitumumab, sudden death): 1 (9)^a n (%)
tolerability of the combination treatment (motesanib, panitumumab, and gemcitabine/cisplatin at the doses and schedule administered): not tolerable
patients with motesanib-related adverse events (of the 33 patients who received motesanib (88%)): 29 patients
deaths considered related to motesanib and panitumumab (pulmonary embolism, 50 mg QD, and sudden death, 125 mg QD, within 30 days of treatment): Two
grade 3/4 arterial thrombosis (treatment regimen as a whole): 2 patients
grade 3 deep vein thrombosis (treatment regimen as a whole): 3 patients
grade 4 pulmonary embolism (treatment regimen as a whole): 8 patients

Reference: PMC3087488 (Journal of Oncology, 2011)
